Holding throughout (assay): growth of human tumour cells (NCI), 48 h
In assay [1] the test system is COLO 205 colon.
Assay [2] has as its system SNB-19 CNS.
Assay [3] has as its system K-562 leukemia.
Assay [4] has as its system TK-10 renal.
For assay [5], the system named is CCRF-CEM leukemia.
The test system of assay [6] is RPMI-8226 leukemia.
Assay [7] relates to NCI/ADR-RES ovarian.
The subject of assay [8] is UACC-62 melanoma.
In assay [9] the test system is HCC-2998 colon.
Assay [10] concerns HCT-15 colon.

“And” between values parts separate entries of the source, which are not always exact repeats. Identical values can stand only once.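 Values below derive from 48-hour exposures of cells grown in 96-well plates, with endpoints linearly interpolated between the two concentrations bracketing the appropriate inhibition level. GI50 is the concentration that inhibits growth by half. TGI is the concentration that stops growth completely.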 Some results are limits rather than exact numbers.

`O=C(N/N=C/c1ccc2c(c1)CCC2)c1ccccc1O`: the TGI was > 100 µM in assay [1]; 44.7 µM in assay [2]; > 100 µM in assay [3]; 51.1 µM in [4]; > 100 µM in [5]; > 100 µM in assay [6]. Also, the TGI in assay [7] was determined as 73.8 µM; in assay [8] it was 70.5 µM; in assay [9], 28.3 µM; in assay [10] it was 69.6 µM.
Take `CC(=O)NC1=C(OS(=O)(=O)c2ccc(C)cc2)CN(C)C1=O`: the TGI in [1] stood at 25.3 µM; in [2], 14.9 µM; in assay [3], 28.3 µM; in assay [4] it was 7.97 µM; in assay [5], 4.28 µM; in assay [6], 5.77 µM. Further, the TGI worked out at 44.9 µM in [7], 21.2 µM in [8], 11.5 µM in assay [9] and 13.2 µM in [10].
Regarding `O=C(C1CCCCC1)[C@@H]1[C@]2(C(=O)NC3CCCCC32)[C@@H]2CCCN2[C@@]12C(=O)NC1CCC(Cl)CC12` (stereo not given in full), the GI50 in assay [1] is 158 µM; in assay [2], 148 µM; in assay [3] it was 41.2 µM; in [4], 266 µM; in assay [5], 32.3 µM; in assay [6], 32.6 µM. Besides, the GI50 in [7] is 127 µM; in assay [8], 91.9 µM; in assay [9], 135 µM; in assay [10] it was 56.5 µM. Further, the TGI in assay [1] was found to be 323 µM; in assay [2] it was 299 µM; in assay [3], 220 µM; in [4] it was 448 µM; in [5], 137 µM; in [6], 103 µM. For the same compound, the TGI in assay [7] came to 310 µM; in assay [8], 215 µM; in assay [9], 293 µM; in assay [10], 211 µM.
As for `O=C1C(=O)c2c(nc3ccc(Cl)cn23)-c2ccccc21`, the GI50 in assay [1] is 1.79 µM; in assay [2], 1.32 µM; in assay [3], 0.163 µM; in assay [4], 1.8 µM; in assay [5], 0.411 µM; in [6] it was 0.35 µM. Moreover, the GI50 in assay [7] was 0.344 µM; in assay [8], 0.285 µM; in assay [9] it was 2.06 µM; in assay [10] it was 1.08 µM. For the same compound, the TGI was 3.54 µM in assay [1]; 3 µM in [2]; > 100 µM in [3]; 3.59 µM in assay [4]; 3.68 µM in assay [5]; 2.88 µM in [6]. For the same compound, the TGI in [7] was found to be 2.04 µM; in assay [8], 0.904 µM; in assay [9] it was 3.96 µM; in assay [10], 2.73 µM.
Take `O[C@H]1CO[C@H]2[C@@H]1OC[C@@H]2Oc1ccc(Nc2ccnc(Nc3ccc(O[C@H]4CO[C@H]5[C@@H]4OC[C@@H]5O)c(Cl)c3)n2)cc1Cl`: the GI50 in [1] is 1.86 µM; in assay [2], 2.75 µM; in [3], 1.27 µM; in assay [4], 2.14 µM; in [5] it was 0.666 µM; in assay [6] it was 1.05 µM. Further, the GI50 in assay [7] is 5.82 µM; in assay [8], 1.11 µM; in [9] it was 2.27 µM; in assay [10], 2.32 µM. The TGI in assay [1] was found to be 6.16 µM; in [2], 7.98 µM; in assay [3], 18.4 µM; in assay [4] it was 10.5 µM; in [5], 5.31 µM; in assay [6], 3.24 µM. Moreover, the TGI was > 100 µM in assay [7], 2.75 µM in assay [8], 6.55 µM in assay [9] and 6.6 µM in [10].
For the compound `O=C(O)C/C=C/CC(=O)O`, the TGI in assay [1], in assay [2], in assay [3], in assay [4], in assay [5] and in [6] was > 100 µM in each case. Moreover, the TGI in assay [7], in assay [8], in assay [9] and in assay [10] was > 100 µM in each case.
For `CNC(=O)OCc1c(COC(=O)NC)c(C)n(-c2ccc(Br)cc2)c1C`, the TGI in [1] turned out to be 27.5 µM; in assay [2] it was 44.3 µM; in assay [3], 95.1 µM; in assay [4] it was 51.5 µM; in assay [5] it was 48.2 µM; in [6] it was 31.6 µM. Besides, the TGI in [7] is 34.9 µM; in assay [8] it was 18.5 µM; in assay [9], 32.2 µM; in assay [10] it was 29.1 µM.
Turning to `Cc1ccc(C(=O)Nc2cccc(C(F)(F)F)c2)cc1Nc1nc(-c2cccnc2)nc2c1cnn2C`, the GI50 was 1.22 µM and 0.575 µM in assay [1]; 4.16 µM and 3.18 µM in assay [2]; 0.0359 µM and 0.0309 µM in assay [3]; 5.9 µM and 2.1 µM in assay [4]; 3.02 µM and 2.44 µM in [5]; 1.63 µM in [6]. For the same compound, the GI50 was 2.19 µM and 1.54 µM in assay [7]; 0.628 µM and 0.335 µM in [8]; 1.11 µM and 0.632 µM in assay [9]; 2.65 µM and 1.63 µM in assay [10]. The TGI in assay [1] is 5.79 µM and 3.65 µM; in assay [2] it was 17.1 µM and > 10 µM; in [3], > 100 µM; in assay [4], 36.6 µM and 6.42 µM; in assay [5] it was > 100 µM; in assay [6] it was 6.04 µM. The TGI in assay [7] was 6.96 µM and 5.68 µM; in assay [8] it was 5.37 µM and 4.25 µM; in assay [9], 3.35 µM and 2.62 µM; in assay [10], 4.94 µM.
For the compound `CC1=C(CCC(C)N(C)Cc2ccc(OCCCN3CCCC3)cc2)C(C)(C)CCC1` (stereo not given), the GI50 is 1.56 µM in assay [1]; 3.61 µM in assay [2]; 1.67 µM in assay [3]; 12.5 µM in assay [4]; 2.66 µM in assay [5]; 2.9 µM in assay [6]. Further, the GI50 in assay [7] is 10.4 µM; in assay [8], 2.11 µM; in assay [9], 1.5 µM; in assay [10] it was 1.42 µM. Moreover, the TGI in assay [1] turned out to be 3.42 µM; in assay [2], 12 µM; in [3] it was 4.06 µM; in assay [4] it was 26.7 µM; in assay [5] it was 11.6 µM; in assay [6] it was 8.65 µM. For the same compound, the TGI in [7] is 25 µM; in assay [8], 4.17 µM; in assay [9], 4 µM; in assay [10], 4.8 µM.

The record behind these values is PubChem BioAssay (NCI).
